Experimental data published in the NIST ThermoML archive (doi:10.1021/je700714m).

Tests used:
[1] = xn = mol fraction of the nth substance listed; settings: for speed of sound / viscosity / mass density: 100 kPa, Liquid
[2] = refractive index (Na D-line) (dimensionless); xn = mol fraction of the nth substance listed; settings: 100 kPa, Liquid

COc1ccc(C=O)cc1 [4-methoxybenzaldehyde] + Clc1ccccc1
Settings | mass density, [1] [kg/m3] | refractive index, [2] | speed of sound, [1] [m/s] | surface tension liquid-gas, [1] [mN/m] | viscosity, [1] [mPa·s]
303.15 K, x1 = 0.144 | – | 1.5589 | – | – | –
303.15 K, x1 = 0.2517 | – | 1.5587 | – | – | –
303.15 K, x1 = 0.3354 | – | 1.5586 | – | – | –
303.15 K, x1 = 0.4308 | – | 1.5585 | – | – | –
303.15 K, x1 = 0.5457 | – | 1.5583 | – | – | –
303.15 K, x1 = 0.6271 | – | 1.5581 | – | – | –
303.15 K, x1 = 0.7371 | – | 1.5578 | – | – | –
303.15 K, x1 = 0.8079 | – | 1.5576 | – | – | –
303.15 K, x1 = 0.9439 | – | 1.5572 | – | – | –
303.15 K, x1 = 1 | – | 1.5571 | – | – | –
313.15 K, x1 = 0.144 | – | 1.5508 | – | – | –
313.15 K, x1 = 0.2517 | – | 1.5507 | – | – | –
313.15 K, x1 = 0.3354 | – | 1.5506 | – | – | –
313.15 K, x1 = 0.4308 | – | 1.5504 | – | – | –
313.15 K, x1 = 0.5457 | – | 1.5502 | – | – | –
313.15 K, x1 = 0.6271 | – | 1.55 | – | – | –
313.15 K, x1 = 0.7371 | – | 1.5497 | – | – | –
313.15 K, x1 = 0.8079 | – | 1.5494 | – | – | –
313.15 K, x1 = 0.9439 | – | 1.549 | 1577 | – | 2.596
313.15 K, x1 = 1 | 1119.1 | 1.5488 | 1631 | – | 2.97
323.15 K, x1 = 0.144 | 1073.5 | 1.548 | 738 | 40.52 | 0.6646
323.15 K, x1 = 0.2517 | 1078.6 | 1.5479 | 758 | 47.99 | 0.8222
323.15 K, x1 = 0.3354 | 1082.5 | 1.5478 | 850 | 53.34 | 0.9386
323.15 K, x1 = 0.4308 | 1086.3 | 1.5477 | 955 | 60.11 | 1.059
323.15 K, x1 = 0.5457 | 1091.6 | 1.5475 | 1082 | 68.77 | 1.192
323.15 K, x1 = 0.6271 | 1095 | 1.5475 | 1170 | 75.22 | 1.287
323.15 K, x1 = 0.7371 | 1100 | 1.5474 | 1290 | 82.89 | 1.474
323.15 K, x1 = 0.8079 | 1103 | 1.547 | 1365 | 85.22 | 1.635
323.15 K, x1 = 0.9439 | 1110.1 | 1.5466 | 1511 | 93.44 | 2.122
323.15 K, x1 = 1 | 1114.1 | 1.5463 | 1571 | 94.1 | 2.442
